Columns and labels:
bedstraw = experiment: Test B pre/postemergence bedstraw; assay type: in vivo, Galium aparine; conditions: Preemergence
Excerpt: (§1) Seeds of bedstraw (Galium aparine), blackgrass (Alopecurus myosuroides), surinam grass (Brachiaria decumbens), cocklebur (Xanthium strumarium), corn (Zea mays), crabgrass (Digitaria sanguinalis), giant foxtail (Setaria faberii), morningglory (Ipomoea hederacea), pigweed (Amaranthus retroflexus), rape (Brassica napus), soybean (Glycine max), sugar beet (Beta vulgaris), velvetleaf (Abutilon theophrasti), wheat (Triticum aestivum), wild oat (Avena fatua) and purple nutsedge (Cyperus rotundus) tubers were planted and treated preemnergence with test chemicals formulated in a non-phytotoxic solvent mixture which included a surfactant.
(§2) At the same time, these crop and weed species were also treated with postemergence applications of test chemicals formulated in the same manner. Plants ranged in height from 2 to 18 cm (1- to 4-leaf stage) for postemergence treatments. Plant species in the flood test consisted of rice (Oryza sativa), smallflower flatsedge (Cyperus difformis), duck salad (Heteranthera limosa) and bamyardgrass (Echinochloa crus-galli) grown to the 2-leaf stage for testing. Treated plants and controls were maintained in a greenhouse for twelve to sixteen days, after which all species were compared to controls and visually evaluated. Plant response ratings, summarized in Table B, are based on a scale of 0 to 10 where 0 is no effect and 10 is complete control. A dash (−) response means no test result.

blackgrass = experiment: Test B pre/postemergence blackgrass; assay type: in vivo, Alopecurus myosuroides; conditions: Preemergence
Excerpt: as §1, §2

surinam grass = experiment: Test B pre/postemergence surinam grass; assay type: in vivo, Brachiaria decumbens; conditions: Preemergence
Excerpt: as §1, §2

cocklebur = experiment: Test B pre/postemergence cocklebur; assay type: in vivo, Xanthium strumarium; conditions: Preemergence
Excerpt: as §1, §2

corn = experiment: Test B pre/postemergence corn; assay type: in vivo, Zea mays; conditions: Preemergence; for Plant response rating, Corn: Rate 125 g/ha
Excerpt: as §1, §2

crabgrass = experiment: Test B pre/postemergence crabgrass; assay type: in vivo, Digitaria sanguinalis; conditions: Preemergence; for Plant response rating, Crabgrass: Rate 125 g/ha
Excerpt: as §1, §2

giant foxtail = experiment: Test B pre/postemergence giant foxtail; assay type: in vivo, Setaria faberii; conditions: Preemergence; for Plant response rating, Giant foxtail: Rate 125 g/ha
Excerpt: as §1, §2

morningglory = experiment: Test B pre/postemergence morningglory; assay type: in vivo, Ipomoea hederacea; conditions: Preemergence; for Plant response rating, Morningglory: Rate 125 g/ha
Excerpt: as §1, §2

pigweed = experiment: Test B pre/postemergence pigweed; assay type: in vivo, Amaranthus retroflexus; conditions: Preemergence; for Plant response rating, Redroot pigweed: Rate 125 g/ha
Excerpt: as §1, §2

rape = experiment: Test B pre/postemergence rape; assay type: in vivo, Brassica napus; conditions: Preemergence; for Plant response rating, Rape: Rate 125 g/ha
Excerpt: as §1, §2

soybean = experiment: Test B pre/postemergence soybean; assay type: in vivo, Glycine max; conditions: Preemergence; for Plant response rating, Soybean: Rate 125 g/ha
Excerpt: as §1, §2

sugar beet = experiment: Test B pre/postemergence sugar beet; assay type: in vivo, Beta vulgaris; conditions: Preemergence; for Plant response rating, Sugarbeets: Rate 125 g/ha
Excerpt: as §1, §2

velvetleaf = experiment: Test B pre/postemergence velvetleaf; assay type: in vivo, Abutilon theophrasti; conditions: Preemergence; for Plant response rating, Velvetleaf: Rate 125 g/ha
Excerpt: as §1, §2

wheat = experiment: Test B pre/postemergence wheat; assay type: in vivo, Triticum aestivum; conditions: Preemergence; for Plant response rating, Wheat: Rate 125 g/ha
Excerpt: as §1, §2

wild oat = experiment: Test B pre/postemergence wild oat; assay type: in vivo, Avena fatua; conditions: Preemergence; for Plant response rating, Wild oats: Rate 125 g/ha
Excerpt: as §1, §2

purple nutsedge = experiment: Test B pre/postemergence purple nutsedge; assay type: in vivo, Cyperus rotundus; conditions: Preemergence; for Plant response rating, Nutsedge: Rate 125 g/ha
Excerpt: as §1, §2

[1] = Rate 62 g/ha, scale of 0 to 10 where 0 is no effect and 10 is complete control
[2] = Rate 125 g/ha, scale of 0 to 10 where 0 is no effect and 10 is complete control
[3] = Rate 250 g/ha, scale 0 (no effect) to 10 (complete control)
[4] = Rate 500 g/ha, scale of 0 to 10 where 0 is no effect and 10 is complete control
[5] = scale of 0 to 10 where 0 is no effect and 10 is complete control
[6] = Rate 500 g/ha, scale 0 to 10 (0 no effect, 10 complete control)

CC(C)N(C(=O)n1oc(=O)n(C(CF)CCl)c1=O)c1ccc(F)cc1 (racemic) [Compound 707]
8: Rape plant response rating (rape; [1]) | Plant response rating, Rape (rape; [5]) | Sugarbeets plant response rating (sugar beet; [3]) | Wild oats plant response rating (wild oat; [1]) | Plant response rating, Wild oats (wild oat; [5])
5: Crabgrass plant response rating (crabgrass; [1]) | Plant response rating, Velvetleaf (velvetleaf; [5]) | Velvetleaf plant response rating (velvetleaf; [3])
4: Morningglory plant response rating (morningglory; [3])
2: Corn plant response rating (corn; [3]) | Wheat plant response rating (wheat; [1]) | Plant response rating, Wheat (wheat; [5]) | Wheat plant response rating (wheat; [3])
6: B. signalgrass plant response rating (surinam grass; [1]) | Giant foxtail plant response rating (giant foxtail; [1]) | Sugarbeets plant response rating (sugar beet; [1]) | Plant response rating, Sugarbeets (sugar beet; [5])
9: Blackgrass plant response rating (blackgrass; [1]) | B. signalgrass plant response rating (surinam grass; [3]) | Plant response rating, Crabgrass (crabgrass; [5]) | Crabgrass plant response rating (crabgrass; [3]) | Wild oats plant response rating (wild oat; [3])
7: Bedstraw plant response rating (bedstraw; [1]) | Plant response rating, Bedstraw (bedstraw; [2]) | Plant response rating, B. signalgrass (surinam grass; [2])
10: Bedstraw plant response rating (bedstraw; [3]) | Plant response rating, Bedstraw (bedstraw; [4]) | Plant response rating, Blackgrass (blackgrass; [2]) | Blackgrass plant response rating (blackgrass; [3]) | Plant response rating, Blackgrass (blackgrass; [4]) | Plant response rating, B. signalgrass (surinam grass; [4]) | Plant response rating, Giant foxtail (giant foxtail; [5]) | Giant foxtail plant response rating (giant foxtail; [3]) | Plant response rating, Redroot pigweed (pigweed; [5]) | Redroot pigweed plant response rating (pigweed; [3]) | Rape plant response rating (rape; [3])
0: Cocklebur plant response rating (cocklebur; [1]) | Plant response rating, Cocklebur (cocklebur; [2]) | Cocklebur plant response rating (cocklebur; [3]) | Plant response rating, Cocklebur (cocklebur; [4]) | Corn plant response rating (corn; [1]) | Plant response rating, Corn (corn; [5]) | Soybean plant response rating (soybean; [1]) | Plant response rating, Soybean (soybean; [5]) | Soybean plant response rating (soybean; [3]) | Nutsedge plant response rating (purple nutsedge; [1]) | Plant response rating, Nutsedge (purple nutsedge; [5]) | Nutsedge plant response rating (purple nutsedge; [3])
3: Morningglory plant response rating (morningglory; [1]) | Plant response rating, Morningglory (morningglory; [5]) | Velvetleaf plant response rating (velvetleaf; [1])

CC(C)N(C(=O)n1oc(=O)n(C(C)C2=NOCC2)c1=O)c1ccccc1 (racemic) [Compound 729]
8: Bedstraw plant response rating (bedstraw; [3]) | Bedstraw plant response rating (bedstraw; [6]) | Morningglory plant response rating (morningglory; [6]) | Velvetleaf plant response rating (velvetleaf; [6])
7: Crabgrass plant response rating (crabgrass; [1]) | Redroot pigweed plant response rating (pigweed; [1]) | Sugarbeets plant response rating (sugar beet; [6]) | Plant response rating, Wild oats (wild oat; [5])
10: Plant response rating, Blackgrass (blackgrass; [2]) | Blackgrass plant response rating (blackgrass; [3]) | Blackgrass plant response rating (blackgrass; [6]) | Plant response rating, B. signalgrass (surinam grass; [2]) | B. signalgrass plant response rating (surinam grass; [3]) | B. signalgrass plant response rating (surinam grass; [6]) | Crabgrass plant response rating (crabgrass; [6]) | Giant foxtail plant response rating (giant foxtail; [6]) | Redroot pigweed plant response rating (pigweed; [3]) | Redroot pigweed plant response rating (pigweed; [6]) | Rape plant response rating (rape; [6]) | Wild oats plant response rating (wild oat; [3]) | Wild oats plant response rating (wild oat; [6])
6: Blackgrass plant response rating (blackgrass; [1]) | Corn plant response rating (corn; [3]) | Wheat plant response rating (wheat; [6])
4: Velvetleaf plant response rating (velvetleaf; [3]) | Wheat plant response rating (wheat; [3])
3: Rape plant response rating (rape; [3])
5: B. signalgrass plant response rating (surinam grass; [1])
0: Bedstraw plant response rating (bedstraw; [1]) | Plant response rating, Bedstraw (bedstraw; [2]) | Cocklebur plant response rating (cocklebur; [1]) | Plant response rating, Cocklebur (cocklebur; [2]) | Cocklebur plant response rating (cocklebur; [3]) | Cocklebur plant response rating (cocklebur; [6]) | Corn plant response rating (corn; [1]) | Plant response rating, Corn (corn; [5]) | Morningglory plant response rating (morningglory; [1]) | Plant response rating, Morningglory (morningglory; [5]) | Rape plant response rating (rape; [1]) | Soybean plant response rating (soybean; [1]) | Plant response rating, Soybean (soybean; [5]) | Sugarbeets plant response rating (sugar beet; [1]) | Plant response rating, Sugarbeets (sugar beet; [5]) | Sugarbeets plant response rating (sugar beet; [3]) | Velvetleaf plant response rating (velvetleaf; [1]) | Wheat plant response rating (wheat; [1]) | Plant response rating, Wheat (wheat; [5]) | Nutsedge plant response rating (purple nutsedge; [1]) | Plant response rating, Nutsedge (purple nutsedge; [5])
2: Morningglory plant response rating (morningglory; [3]) | Plant response rating, Rape (rape; [5]) | Soybean plant response rating (soybean; [3]) | Soybean plant response rating (soybean; [6]) | Plant response rating, Velvetleaf (velvetleaf; [5]) | Wild oats plant response rating (wild oat; [1]) | Nutsedge plant response rating (purple nutsedge; [6])
9: Corn plant response rating (corn; [6]) | Plant response rating, Crabgrass (crabgrass; [5]) | Crabgrass plant response rating (crabgrass; [3]) | Giant foxtail plant response rating (giant foxtail; [1]) | Plant response rating, Giant foxtail (giant foxtail; [5]) | Giant foxtail plant response rating (giant foxtail; [3]) | Plant response rating, Redroot pigweed (pigweed; [5])

Reference: US6737383B1, “Herbicidal oxadiazolidines” (priority 1999, dated 2004)
